Laboratory results taken from patent US12583889B2, “Cell penetrating peptides” (Oxford University Innovation Limited, priority 2017, dated 2026).
Marks after values point to notes of the source that are not given here.

Columns and labels:
human SMN2-gene = experiment: Full-length SMN2 transcript qPCR in tissues of adult SMA mice after intravenous peptide-PMO conjugate; format: in vivo
Text: Smn1tm1Hung/wt; […]; […] Tissues were harvested one week post administration. […] Statistical significance determined by Student'[…]≤0.00005. […] ID NO.151), Exons 7-8 Rev: [NT] ID NO.152). […] [NT] ID NO.154). […] PolJ Forward: [NT] ID NO.155); PolJ Reverse: [NT]

[1] = Urinary kidney toxicity markers KIM-1 and NGAL by ELISA after a single IV dose of peptide-PMO conjugate; format: in vivo; conditions: 25 mg/kg single IV dose, C57/BL10 female mice
Method: Urinary and serum markers of kidney and liver toxicity were measured following a single dose administration of saline or the relevant peptide-PMO conjugate to 8 week old adult C57/BL10 female mice (N=6 per group). A bolus IV (tail vein) injection was administered and urine collected Day 2 and Day 7 after administration. Animals were then scarified prior to necropsy in which kidney, liver, diaphragm, heart, TA, gastric and serum were collected. Urine clinical indicators: KIM-1, NGAL were measured by ELISA (R&D cat #MKM100) with samples diluted to fit within standard curve. Values were normalised to urinary creatinine levels (Harwell) to account for urine protein concentration.
Group 2—25 mg/kg Pip8b4-PMO SMN
Group 3—25 mg/kg DPEP5.17-PMO SMN

[2] = adult SMA mice, 2x15 mg/kg IV approx. 48 hours apart, tissue 7 days post final administration, normalised to saline treated controls, Central Nervous System
[3] = adult SMA mice, 2x15 mg/kg IV approx. 48 hours apart, tissue 7 days post final administration, normalised to saline treated controls, spinal cord

Substance: Ac-RXRRBRR FS*RBRXR-B [Peptide 17]
- activity in cerebellum and cortex compared with peptide 6 (human SMN2-gene; FIG. 7, 2x15 mg/kg IV 48 hours apart, adult intermediate SMA mice): equivalent or improved activity
- level of full length transcript (FLSMN) in all tissues (human SMN2-gene; FIG. 7, 2x15 mg/kg IV 48 hours apart, adult intermediate SMA mice, central spinal cord, peripheral skeletal muscle and liver): > 1 fold
- cell penetration in several compartments of the central nervous system and the skeletal muscle compared with currently available peptides 1-7 (human SMN2-gene; Table 3 data): increased
- full-length SMN2 transcripts, mean expression level, Brainstem (human SMN2-gene; [2]): 1.2
- full-length SMN2 transcripts, mean expression level, Cerebellum (human SMN2-gene; [2]): 1.19*
- full-length SMN2 transcripts, mean expression level, Cortex (human SMN2-gene; [2]): 1.27*
- full-length SMN2 transcripts, mean expression level, Liver (human SMN2-gene; adult SMA mice, 2x15 mg/kg IV approx. 48 hours apart, tissue 7 days post final administration, normalised to saline treated controls, Off Target): 3.78
- full-length SMN2 transcripts, mean expression level, Gastroc (human SMN2-gene; adult SMA mice, 2x15 mg/kg IV approx. 48 hours apart, tissue 7 days post final administration, normalised to saline treated controls, Skeletal Muscle (gastrocnemius)): 3.25****
- full-length SMN2 transcripts, mean expression level, Quad (human SMN2-gene; adult SMA mice, 2x15 mg/kg IV approx. 48 hours apart, tissue 7 days post final administration, normalised to saline treated controls, Skeletal Muscle (quadriceps)): 2.68***
- full-length SMN2 transcripts, mean expression level, TA (human SMN2-gene; adult SMA mice, 2x15 mg/kg IV approx. 48 hours apart, tissue 7 days post final administration, normalised to saline treated controls, Skeletal Muscle (tibialis anterior)): 3.00***
- full-length SMN2 transcripts, mean expression level, Cervical (human SMN2-gene; [3]): 1.41*
- full-length SMN2 transcripts, mean expression level, Lumbar (human SMN2-gene; [3]): 1.1
- full-length SMN2 transcripts, mean expression level, Thoracic (human SMN2-gene; [3]): 1.39**
- increase in cell penetration / exon inclusion compared with the currently available peptide conjugated to the same antisense oligonucleotide (human SMN2-gene; in vivo, Table 3 data, peptide 17 versus peptide 6, peptide 14 versus peptide 2): up to 60.2%
- urinary KIM-1 level normalised to creatinine, compared with peptide 6 ([1]; 2 days after administration): far lower
- urinary KIM-1 level normalised to creatinine, compared with peptide 6 ([1]; 7 days post administration): lower
- urinary NGAL level normalised to creatinine, compared with peptide 6 ([1]; 7 days post administration): lower
